Usually Kd stands for a measure of binding affinity in units of concentration. Lower therefore signals higher affinity.

In data set [1] the target is T1, human serum albumin (HSA) (Homo sapiens, UniProt P02768). As to the kind of experiment: In vitro binding to HSA via SPR (Biacore 8K). Background: SPR reads the build-up and loss of mass on a sensor chip optically.
Experimental: (§1) According to the instructions for the Amine Coupling Kit, Type 2 (Cytiva), immobilize human serum albumin onto the surface of the CM5 sensor chip of the S Series. […] Human serum albumin (HSA) was diluted to 20 µg/mL with acetic acid solution of pH 4.5. The EDC/NHS mixture solution, HSA protein solution, and 1M ethanolamine-hydrochloric acid solution were added to the detection plate according to the program settings. b) The detection plate was placed into the Biacore 8K sample compartment. The EDC/NHS mixture solution, HSA protein solution, and 1M ethanolamine-hydrochloric acid solution were sequentially injected into the channels on the surface of the CM5 chip by the Biacore 8K according to the program. Through this process, the chip was activated, the ligand was coupled, and the chip was deactivated. Each channel consists of two circulation pools, with circulation pool 1 serving as the reference channel undergoing only surface activation and deactivation without injection of HSA protein solution.
(§2) The detection plate was placed into the sample compartment of the Biacore 8K, with the running buffer serving as the 0-concentration reference sample. c) Run the detection program, with samples sequentially injected into each channel of the chip according to the program.
(§3) Finally, the data was analyzed using BiaCore Insight Evaluation Software, employing a 1:1 binding model for analysis.
Data set [2] deals with T1, human serum albumin (HSA). Particulars: hsa on cm5 chip.
Experimental: as §1, §2, §3
The next data set concerns normal SD rats. As to the kind of experiment: Pharmacodynamic study in normal SD rats (blood glucose, single subcutaneous dose). Particulars: for Blood Glucose Levels: Table 4.2, SD rats, 650 nmol/kg s.c. single dose, Mean ± SEM, n = 8. The class given is in vivo.
[3] abbreviates: HSA on CM5 chip, 1:1 binding model.

T1 sequence (P02768 25-609): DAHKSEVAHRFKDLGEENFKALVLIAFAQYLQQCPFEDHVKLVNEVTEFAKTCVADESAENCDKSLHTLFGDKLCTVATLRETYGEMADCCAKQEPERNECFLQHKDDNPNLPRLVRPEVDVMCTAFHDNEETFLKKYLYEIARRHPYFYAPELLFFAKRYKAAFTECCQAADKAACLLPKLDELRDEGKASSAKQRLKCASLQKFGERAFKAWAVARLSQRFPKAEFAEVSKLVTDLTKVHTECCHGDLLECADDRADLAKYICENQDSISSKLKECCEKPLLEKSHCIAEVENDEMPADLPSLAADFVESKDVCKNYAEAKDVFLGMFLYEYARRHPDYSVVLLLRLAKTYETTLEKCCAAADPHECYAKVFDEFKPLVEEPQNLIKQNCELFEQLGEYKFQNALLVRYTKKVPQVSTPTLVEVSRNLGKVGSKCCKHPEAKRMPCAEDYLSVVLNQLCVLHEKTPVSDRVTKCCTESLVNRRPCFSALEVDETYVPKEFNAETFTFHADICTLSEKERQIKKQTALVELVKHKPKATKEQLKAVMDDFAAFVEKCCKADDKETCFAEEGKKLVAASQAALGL
Experimental for normal SD rats: Normal male SD rats aged 8-9 weeks, body weight 280-320 g, were selected. Animals were housed in animal housing facilities with strictly controlled environmental conditions, where the temperature is maintained between 20°Cand 24°C and humidity was kept between 30 and 70%. During the experiment, animals were housed individually with free access to food and water.
After one week of adaptive feeding, the experiment commenced. Rats were assigned to Solvent group 1, Solvent group 2, and the treatment group based on body weight and blood glucose levels before administration, with eight rats per group. The administered doses were all 650 nmol/kg.
The above drugs were dissolved in the solvent to a concentration of 216.7 nmol/mL. The dosing volume is 3 mL/kg. For a single subcutaneous administration, with the administration time set as 0 hours, blood glucose levels were measured at 0 h before dosing, and at 4 h, 8 h, 24 h, 28 h, 48 h, 72 h, 96 h, and 120 h after dosing (without dietary restrictions).

Substance “A14E, B16H, B25H, B29K (N^ε-[1-(19-Carboxyl-nonadecyloxy)-β-D-glucuronyl]-γGlu-[2-(2-{2-[2-(2-Aminoethoxy) ethoxy]acetylamino}ethoxy)ethoxy]acetyl), desB27, desB30 human insulin [Compound 4]” gave a ka in data set [1] (setting [3]) of 612 M⁻¹ s⁻¹. This substance registered a kd in data set [1] (setting [3]) of 0.169 s⁻¹. Further, the “binding affinity to HSA” value in data set [1] (comparison in words with Icodec, SPR) is “superior binding affinity to HSA compared to Icodec”. The Kd in data set [2] came out at 275 µM. In addition, the “Blood Glucose Levels” value with normal SD rats (0 h (before dosing)) is on record as 7.3 ± 0.1; in the data set on normal SD rats (4 h) it was 3.6±0.3; in the data set with normal SD rats (24 h) it was 4.2±0.4; with normal SD rats (48 h), 4.4±0.5; in the data set with normal SD rats (72 h) it was 6.6±0.5; in the data set on normal SD rats (96 h) it was 7.8±0.1. In the data set with normal SD rats (120 h), the “Blood Glucose Levels” value was determined as 7.5 ± 0.1. Besides, in the data set on normal SD rats (comparison in words with Icodec, SD rats, s.c.), the hypoglycemic effect entry is listed as “superior to Icodec”.
